Where a name gives a salt, the structure may show the parent alone.
Key:
SB.mhdgc-1 = assay: AC50 for growth inhibition (viability) (log10 M); higher = less potent; details: SB.mhdgc-1 (hereditary c.1380delA CDH1 gastric cancer)
How it was run: (§1)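 After 48 h with compound, plates received CellTiter-Glo for 30 min at room temperature and were read for luminescence on a ViewLux. The cells were patient-derived gastric cancer lines of hereditary or sporadic origin, plated at 500 cells in 5 μL medium per 1536 well and pinned with 23 nL compound in DMSO, at 11 threefold dilutions from a final 46 μM. For the log half-maximal activity concentration, DMSO-normalised viability was fitted with four parameters and only high-quality curve classes were kept.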

SB.msgc-1 = assay: as above; details: SB.msgc-1 (sporadic gastric cancer)
How it was run: as §1

| SMILES | AC50 for growth inhibition (log10 M) (SB.mhdgc-1) | AC50 for growth inhibition (log10 M) (SB.msgc-1) |
| --- | --- | --- |
| CCN(CC)CCOC1=CC=C(NC2=NC=C3\C=C(/C(=O)N(C)C3=N2)C4=C(Cl)C=CC=C4Cl)C=C1 | -5.18 | -5.98 |
| CC(C)C[C@H](NC(=O)[C@H](Cc1ccccc1)NC(=O)c1cnccn1)B(O)O [Bortezomib] | -7.78 | -7.98 |
| CC[C@@H]1C(=O)N(C)c2cnc(Nc3ccc(C(=O)NC4CCC(N5CCN(CC6CC6)CC5)CC4)cc3OC)nc2N1C(C)C (stereo partly drawn) [Volasertib] | -5.08 | -7.03 |
| Nc1nc(F)nc2c1ncn2[C@@H]1O[C@H](CO)[C@@H](O)[C@H]1O [2-Fluoroadenosine] | -6.23 | -6.23 |
| c1ccc2c(Cc3c[nH]c4ccccc34)c[nH]c2c1 [Diindolylmethane] | -6.13 | -5.63 |
| C=CC(=O)Nc1cccc(Oc2nc(Nc3ccc(N4CCN(C)CC4)cc3OC)ncc2Cl)c1 [WZ-4002] | -4.83 | -7.78 |
| Nc1cc(C(F)(F)F)c(-c2cc(N3CCOCC3)nc(N3CCOCC3)n2)cn1 [BKM-120] | -6.78 | -6.18 |
| C[C@@H]1CC[C@@]2(OC1)O[C@H]3C[C@H]4[C@@H]5C/C=C6/C[C@H](CC[C@]6(C)[C@H]5CC[C@]4(C)[C@H]3[C@@H]2C)O[C@@H]7O[C@H](CO)[C@@H](O[C@@H]8O[C@@H](C)[C@H](O)[C@@H](O)[C@H]8O)[C@H](O)[C@H]7O[C@@H]9O[C@@H](C)[C@H](O)[C@@H](O)[C@H]9O [Dioscin] | -5.38 | -5.23 |
| COc1cccc2c1C(=O)c1c(O)c3c(c(O)c1C2=O)C[C@@](O)(C(=O)CO)C[C@@H]3O[C@H]1C[C@H](N)[C@H](O)[C@H](C)O1 [Doxorubicin] | -7.33 | -6.43 |
| Nc1nccc(-c2ccc3noc(-c4ccc(Cl)cc4)c3c2)n1 [Pim 1 inhibitor 2] | -5.48 | -5.03 |
| CN(C)CCOc1ccc(/C(=C(/CCCl)c2ccccc2)c2ccccc2)cc1 [Toremifene] | -4.63 | -4.63 |
| Cc1nnc(C(C)C)n1[C@@H]1C[C@H]2CC[C@@H](C1)N2CC[C@H](NC(=O)C1CCC(F)(F)CC1)c1ccccc1 [Maraviroc] | -5.18 | -4.78 |
| COC1=C(OCCCN2CCOCC2)C=C3N=CC=C(OC4=CC=C(C=C4F)\C5=C\N=C(\NC6=CC=C(F)C=C6)N(C)C5=O)C3=C1 [AMG-51] | -5.03 | -4.73 |
| CNCCCC12CCC(c3ccccc31)c1ccccc12 [Maprotiline hydrochloride] | -4.78 | -4.63 |
| CC1=CC=C(C=C1)N(C\C2=N\CCN2)C3=CC=CC(=C3)O [Phentolamine mesilate] | -4.98 | -4.68 |
| CCCCOc1c(C(=O)c2c(F)cc(C)cc2F)cnc2[nH]ncc12 | -5.63 | -5.63 |
| COC1=CC=C(C=C1)C2CC(=N/N2C3=CC=C(C=C3)[S+](N)([O-])=O)\C4=CC=CC=C4 (stereo not drawn) [ML 141] | -4.68 | -4.73 |
| COc1cc2c(cc1-c1c(C)noc1C)ncc1[nH]c(=O)n([C@H](C)c3ccccn3)c12 [I-BET151] | -4.93 | -5.28 |
| OC[C@H]1OC(OC2=CC3=C(C(=C2)O)C(=O)\C(=C/O3)C4=CC=C(O)C=C4)[C@H](O)[C@@H](O)[C@@H]1O (stereo partly drawn) [Genistin] | -5.78 | -6.33 |
| O=C(CC12CC3CC(CC(C3)C1)C2)Nc1cccc2nc(NCCNCCO)ccc12 | -4.83 | -4.78 |
| CCOC(=O)[C@H](CCc1ccccc1)N[C@@H](C)C(=O)N1[C@H](C(=O)O)C[C@@H]2CCC[C@@H]21 [Ramipril] | -5.18 | -4.73 |
| C[C@@H]1C[C@H]2[C@@H]3\C=C(C)/C4=C/C5=C(C[C@]4(C)[C@H]3[C@@H](O)C[C@]2(C)[C@@]1(O)C(=O)COC(C)=O)C=N[N]5C6=CC=CC=C6 [Cortivazol] | -5.53 | -5.58 |
| CC/C(=C(/CC)c1ccc(O)cc1)c1ccc(O)cc1 [Diethylstilbestrol] | -5.53 | -4.83 |
| CCN1CCN(c2ccc(Nc3cc(N(C)C(=O)Nc4c(Cl)c(OC)cc(OC)c4Cl)ncn3)cc2)CC1 [BGJ-398] | -4.58 | -4.73 |
| CC(=O)N(C)C1(c2ccccc2)CCN(CCC[C@]2(c3ccc(Cl)c(Cl)c3)CCCN(C(=O)c3ccccc3)C2)CC1 [Osanetant] | -4.98 | -4.78 |

| SMILES | AC50 for growth inhibition (log10 M) (SB.mhdgc-1) | AC50 for growth inhibition (log10 M) (SB.msgc-1) |
| --- | --- | --- |
| COc1ncc(-c2ccc3nccc(-c4ccnnc4)c3c2)cc1N[S+](=O)([O-])c1ccc(F)cc1F | -7.38 | -5.93 |
| O=C(CCCCCCC(=O)Nc1cccnc1)NO [Pyroxamide] | -5.53 | -5.33 |
| C[N]1C=C(C=N1)C2=C3\C=N/NC(=O)C4=C3C(=CC(=C4)NC(=O)[C@H](N)C5CCCCC5)[NH]2 | -6.08 | -5.63 |
| CN1\C(=C(O)/C2=C(C=C(Cl)S2)[S+]1([O-])=O)C(=O)NC3=NC=CC=C3 [Lornoxicam] | -5.88 | -5.43 |
| CC(C)(C)NC(=O)[C@@H]1CN(Cc2cccnc2)CCN1C[C@@H](O)C[C@@H](Cc1ccccc1)C(=O)N[C@H]1c2ccccc2C[C@H]1O.O=S(=O)(O)O [Indinavir] | -6.08 | -4.78 |
| CC(C)(O)/C=C\C(=O)[C@](C)(O)[C@H]1[C@H](O)C[C@]2(C)[C@@H]3CC=C4[C@@H](C=C(O)C(=O)C4(C)C)[C@]3(C)C(=O)C[C@@]12C [Cucurbitacin I] | -7.43 | -5.98 |
| CCCCc1ccc(N[S+](=O)([O-])c2ccc(C)c(C(=O)N3CCN(c4cccc(C)c4C)CC3)c2)cc1 [IDH-001] | -4.83 | -4.68 |
| CC(C)C(=O)Nc1ccc([N+](=O)[O-])c(C(F)(F)F)c1 [Flutamide] | -5.83 | -5.63 |
| COC1=CC=C2[N](CCCN(C)C)C=C(C2=C1)C/3=C(/C(=O)NC3=O)C4=C[NH]C5=C4C=CC=C5 [G?-6983] | -6.78 | -4.58 |
| COc1cccc2cc(-c3nc(C4CCC(C(=O)O)CC4)n4ncnc(N)c34)[nH]c12 (stereo not drawn) [OSI-027] | -7.58 | -5.33 |
| Cc1ccc(NC(=O)C2(c3ccc4c(c3)OC(F)(F)O4)CC2)nc1-c1cccc(C(=O)O)c1 [Lumacaftor] | -6.73 | -7.63 |
| c1ccc(CNc2nc(NCc3ccccc3)c3ccccc3n2)cc1 | -5.03 | -5.03 |
| C=C(C)[C@H]1Cc2c(ccc3c2O[C@@H]2COc4cc(OC)c(OC)cc4[C@@H]2C3=O)O1 [Rotenone] | -5.38 | -6.33 |
| COC(=O)C1C2CC3c4[nH]c5cc(OC)ccc5c4CCN3CC2CC(OC(=O)c2cc(OC)c(OC)c(OC)c2)C1OC (stereo not drawn) [Reserpine] | -5.43 | -5.43 |
| CNC1CCC(N(Cc2cccc(-c3ccncc3)c2)C(=O)c2sc3ccccc3c2Cl)CC1 (stereo not drawn) [SAG] | -4.93 | -4.88 |
| COc1cc2ncnc(Nc3cccc(Cl)c3)c2cc1OC [AG-1478] | -7.43 | -6.23 |
| Cc1c(O)cccc1C(=O)N[C@@H](CSc1ccccc1)[C@H](O)CN1C[C@H]2CCCC[C@H]2C[C@H]1C(=O)NC(C)(C)C [Viracept] | -4.73 | -4.73 |
| Cc1cc(Nc2nc(N[C@@H](C)c3ccc(F)cc3)c(C#N)cc2F)n[nH]1 [AZ-960] | -4.73 | -4.68 |
| CCN(CC)CCNC(=O)c1c(C)[nH]c(/C=C2\C(=O)Nc3ccc(F)cc32)c1C [Sunitinib malate] | -5.32 | -4.42 |
| Nc1ccc(C(=O)Nc2cccc(-c3nc(N4CCOCC4)c4oc5ncccc5c4n3)c2)cn1 | -5.38 | -5.18 |
| CC(=O)O[C@@]12CO[C@@H]1C[C@H](O)[C@]3(C)[C@@H]2[C@H](OC(=O)C4=CC=CC=C4)[C@]5(O)C[C@H](O)/C(=C(/[C@@H](O)C3=O)C5(C)C)C [10-Deacetylbaccatin] | -5.83 | -5.38 |
| COC1=CC2=C(C=C1OC)[C@H]3[C@@H](CO2)OC4=C(C=CC5=C4\C=C/C(C)(C)O5)C3=O [Deguelin] | -5.38 | -5.23 |
| COc1cc(F)c(C(C)C)cc1-c1ccc(C(F)(F)F)cc1CN1C(=O)O[C@H](c2cc(C(F)(F)F)cc(C(F)(F)F)c2)[C@@H]1C [Anacetrapib] | -5.13 | -5.48 |
| CCOc1ccccc1N/N=C1/C(=O)N(c2nc(-c3ccccc3)cs2)N=C1C [BAM7] | -5.48 | -5.48 |

From the supplement of paper PMC5412046
